Measured values taken from patent US20160368873A1, “Optically Active Form of Mepenzolate, and Ameliorating Agent for Chronic Obstructive Pulmonary Disease Which Contains Same as Active Ingredient” (LTT BIO-PHARMA CO., LTD., priority 2014, published 2016).

Columns and labels:
[1] = target: T1, human M3 muscarinic receptor (Homo sapiens, UniProt P20309); test: Receptor binding ability (in vitro) (1), [3H]NMS competitive inhibition (Test Example 2.1); conditions: CHO-K1 membrane fraction, 2.0 nM [3H]NMS
T1 construct: expressed in transfected cells; host or cells: CHO-K1 cells (membrane fraction)
Method: Nonspecific binding was measured in the presence of 1 μM atropine.
The resulting filter, which was dried and a solid scintillator, MeltiLex A (manufactured by PerkinElmer, Inc.) was melted thereon, was measured and quantified by using a β-counter (MicroBeta microplate scintillation counter (Trilux: manufactured by PerkinElmer, Inc.).

[2] = system: ICR mice; test: Effect on porcine pancreatic elastase (PPE)-induced inflammation (1) (Test Example 4.1); assay type: in vivo; conditions: 38 μg/kg via the airway once, PPE 100 μg per mouse 1 h later, BALF 24 h after PPE, FIG. 8
Method: Then, broncho alveolar lavage fluid (BALF) was collected from the lung 24 hours after administration of porcine pancreatic elastase and a total cell count and a neutrophil count were measured.

[3] = system: ICR mice; test: Effect on porcine pancreatic elastase (PPE)-induced inflammation (2) (Test Example 4.2); assay type: in vivo; conditions: 7.5 μg/kg and 38 μg/kg via the airway once, PPE 20 U/kg 1 h later, BALF 6 h after PPE; for Total cell count in BALF: FIG. 9; for Neutrophil count in BALF: FIG. 10
Method: Then, broncho alveolar lavage fluid (BALF) was collected from the lung 6 hours after administration of porcine pancreatic elastase. The BALF was collected by washing the lung twice with saline containing heparin (50 U/mL) with the aid of a tracheostomy tube.
A total cell count of the collected BALF was measured by hemocytometer. The cells were centrifuged by using Cytospin 4 (registered trademark, manufactured by Thermo Electron Corporation) and then fixed with Diff-Quik reagent, and the neutrophil count was determined on the basis of the ratio of the neutrophil count to the total cell count.

[4] = system: ICR mice; test: Effect on PPE-induced inflammation (3), cytokine and chemokines in BALF by ELISA (Test Example 4.3); assay type: in vivo; conditions: 38 μg/kg via the airway, PPE 20 U/kg, FIGS. 11 to 14
Method: The levels of cytokine and chemokine in broncho alveolar lavage fluid (BALF) were measured as indications of an effect on PPE-induced inflammation.
Specifically, TNF-α ([…]), which is a pro-inflammatory cytokine, was measured as a cytokine that is an inflammatory factor and a macrophage inflammatory protein (MIP-2), a monocyte chemotactic protein (MCP-1), and a keratinocyte-derived chemokine (KC) were measured as an inflammatory chemokine.
The measurement of such a cytokine and chemokines in the BALF was performed by ELISA.

[5] = Concentration in lung tissue after airway administration (Test Example 1); assay type: in vivo; conditions: ICR mice, airway administration 20 mg/kg, chiral HPLC
Method: The test samples were divided into 300 μL aliquots and subjected to ultrafiltration using an Amicon ultra-0.5 centrifugal filter.
The HPLC conditions were as follows.
Detector: Waters 2695 Alliance separation module and Waters 2996 photodiode array detector (manufactured by Waters Corporation)
Eluent: Solvent A (Water containing 0.1 M hexafluorophosphate)/Solvent B (acetonitrile)
Mobile Phase: 70% Solvent A/30% Solvent B
Measuring wavelength: 220 nm

[6] = system: ICR mice; test: Effect on methacholine-induced airway constriction (1) (Test Example 3.1); assay type: in vivo; conditions: 3.75 μg/kg via the airway, 1 h before nebulized methacholine, FIG. 5
Method: (§1) Increase in airway resistance induced by methacoline was measured.
4 to 6 week old ICR mice received 1 mg/mL methacoline by nebulization over 20 seconds and this was repeated five times. After each administration of methacoline was completed, the airway resistance was measured by a snap shot technique. All the data were analyzed by using FlexiVent software.
(§2) One hour after administration, the mice received five exposures to nebulized methacoline by the above-mentioned method and the airway resistance at the time of each administration was measured.

[7] = system: ICR mice; test: Effect on methacholine-induced airway constriction (2) (Test Example 3.2); assay type: in vivo; conditions: 3.8 μg/kg via the airway, 1 h before nebulized methacholine, FIG. 7
Method: as §1
4 to 6 week old ICR mice were anesthetized with chloral hydrate (500 mg/kg), a tracheostomy was performed, and a metal tube […] in diameter was inserted into the trachea.
The mice were mechanically ventilated at 150 respirations/minute with a displacement per one cycle of 8.7 mL/kg and a positive end-expiratory pressure of 2 to 3 cmH2O.
The mice were exposed to nebulized methacholine (5 mg/kg) for 20 seconds four times at intervals of 40 seconds to induce airway resistance by methacholine, and the airway resistance was measured by a snap shot technique.
as §2
The data were analyzed by using FlexiVent software.

[8] = system: ICR mice; test: Fecal pellet output (level of constipation occurrence) after application of stress (Test Example 5); assay type: in vivo; conditions: 4.7 mg/kg intratracheally, 1 h later one-hour restraint stress, FIG. 15
Method: 4 to 6 week old ICR mice were put under stress by placing the mice in a 50 mL tube for one hour, the tube ensuring free breathing but restraining free movement, and the fecal pellet output (the level of constipation occurrence) at that time was measured.
The level of constipation occurrence was monitored by measuring the fecal pellet output during the above-mentioned period.

[9] = target: T2, human M3 muscarinic receptor (hM3R) (Homo sapiens, UniProt P20309); test: Receptor binding ability (in vitro) (2), [3H]NMS competitive inhibition, hM3R (Test Example 2.2); conditions: Table 2 and FIG. 3, compared to (R)-mepenzolate bromide and the racemate
T2 construct: expressed in transfected cells; host or cells: CHO-K1 cells (membrane fraction)
T2 sequence (P20309 whole entry): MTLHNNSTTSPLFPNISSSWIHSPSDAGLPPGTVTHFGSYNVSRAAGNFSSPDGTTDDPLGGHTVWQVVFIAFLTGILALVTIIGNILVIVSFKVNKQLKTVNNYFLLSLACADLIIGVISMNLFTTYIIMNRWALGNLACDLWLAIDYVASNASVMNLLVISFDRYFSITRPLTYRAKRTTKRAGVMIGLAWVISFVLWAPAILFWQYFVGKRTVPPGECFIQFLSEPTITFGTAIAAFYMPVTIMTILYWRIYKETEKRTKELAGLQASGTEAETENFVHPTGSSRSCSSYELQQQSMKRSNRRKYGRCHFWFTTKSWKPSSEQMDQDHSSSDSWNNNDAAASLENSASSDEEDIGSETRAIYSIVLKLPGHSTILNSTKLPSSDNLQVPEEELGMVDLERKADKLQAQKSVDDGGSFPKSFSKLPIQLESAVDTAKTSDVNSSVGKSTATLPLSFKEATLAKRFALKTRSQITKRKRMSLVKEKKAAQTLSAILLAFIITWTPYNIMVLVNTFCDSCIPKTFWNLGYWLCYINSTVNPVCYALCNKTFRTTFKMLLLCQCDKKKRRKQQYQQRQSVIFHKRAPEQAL
Method: Membrane fractions of CHO—K1 cells overexpressing a human M3 muscarinic receptor (hM3R) or CHO—K1 cells overexpressing a human M2 muscarinic receptor (hM2R) were used to measure receptor binding ability by competitive inhibition assay with 1-[N-methyl-^3H]scopolamine methyl bromide ([^3H]NMS, specific activity: 85.5 Cimmol). The protein concentration of the cell membrane was 10.0 μg/well and the [^3H]NMS concentration was 2.0 nM.
A binding buffer (phosphate buffer/saline) was added to the reagents to make a total volume of 200 μL. […]
The resulting filter was dried for 30 minutes, and then, fixed to a solid scintillator, MeltiLex A (melt-on scintillation sheet; manufactured by PerkinElmer, Inc.). The radioactivity remaining on the filter was measured in a MicroBeta Trilux microplate scintillation counter (manufactured by PerkinElmer, Inc.).
An experimental IC50 was calculated by using an experimentally obtained constant (κd) of [^3H]NMS for hM3R or hM2R and the concentration thereof, and then, the affinity at equilibrium was determined as a competitive equilibrium dissociation constant (κi) value. In this regard, the κi value was calculated from three individual curves and modified by using Prism (produced by GraphPad Software, Inc.).

T1 sequence (P20309 whole entry): as above

| Structure (SMILES) | Binding to the M3 receptor (FIG. 1), in words [1] | Neutrophil count in BALF [2] | Total cell count in BALF [2] | Total cell count in BALF [3] | Neutrophil count in BALF [3] | Inflammatory factors in BALF (TNF-α, MIP-2, MCP-1, KC) [4] | Concentration in lung tissue, (R)-Mep, 5 min. ([5]; 5 min after administration, (R)-Mep detected) | Concentration in lung tissue, (R)-Mep, 15 min. ([5]; 15 min after administration, (R)-Mep detected) | Concentration in lung tissue, (R)-Mep, 30 min. ([5]; 30 min after administration, (R)-Mep detected) | Effect of suppressing airway resistance (methacholine-induced) [6] | Effect of suppressing airway resistance (methacholine-induced), low dose [7] | Level of constipation occurrence (fecal pellet output) [8] | Concentration in lung tissue, (S)-Mep, 5 min. ([5]; 5 min after administration, (S)-Mep detected) | Concentration in lung tissue, (S)-Mep, 15 min. ([5]; 15 min after administration, (S)-Mep detected) | Concentration in lung tissue, (S)-Mep, 30 min. ([5]; 30 min after administration, (S)-Mep detected) | Affinity to hM3R (M3 receptor), in words [9] |
| --- | --- | --- | --- | --- | --- | --- | --- | --- | --- | --- | --- | --- | --- | --- | --- | --- |
| C[N+]1(C)CCC[C@@H](OC(=O)C(O)(c2ccccc2)c2ccccc2)C1.[Br-] (racemic) [racemate, mepenzolate bromide, reference compound] | bound strongly to the M3 receptor | similarly effective | similarly effective | effect of decreasing | effect of decreasing | decreased inflammatory factors effectively |  |  |  |  |  |  |  |  |  |  |
| C[N+]1(C)CCC[C@@H](OC(=O)C(O)(c2ccccc2)c2ccccc2)C1.[Br-] [R-form, (3R)-3-[(hydroxy) (diphenyl)acetoxy]-1,1-dimethylpiperidinium bromide] | bound strongly to the M3 receptor | relatively stronger effect of decreasing | relatively stronger effect of decreasing | effect of decreasing | effect of decreasing | decreased inflammatory factors effectively | 44.5 ± 11.5 μg/lung | 6.3 ± 4.2 μg/lung | 5.1 ± 1.3 μg/lung | significant effect of suppressing airway resistance | significant effect of suppressing airway resistance | highest level of constipation occurrence |  |  |  |  |
| C[N+]1(C)CCC[C@H](OC(=O)C(O)(c2ccccc2)c2ccccc2)C1.[Br-] [S-form, (3S)-3-[(hydroxy) (diphenyl)acetoxy]-1,1-dimethylpiperidinium bromide] | weaker binding ability | similarly effective | similarly effective | effect of decreasing | effect of decreasing | decreased inflammatory factors effectively |  |  |  | little effect | little effect | low level of constipation occurrence | 36.4 ± 9.5 μg/lung | 7.6 ± 0.5 μg/lung | 6.2 ± 0.4 μg/lung | lower affinity |
